The values that follow come from patent publication US12257248B2, “Bronchodilators for treating obstructive lung disease” (University of South Florida, priority 2020, dated 2025).

Assay [1] relates to D9-HASM cells. Description: [Ca2+]i stimulation screening assay (Fluo-4) in D9-HASM cells. Format: cell-based, human. Particulars: for EC50: Fluo-4, mean±SE from 4-8 experiments, read-out: EC50 ([Ca^2+]i stimulation); for Emax / Rmax (% ionomycin): maximal [Ca2+]i response normalized to ionomycin 2.0 μM; for Emax: read-out: Rmax (% ionomycin). Here is the method: Cultured D9 telomerase reverse transcriptase immortalized HASM (D9-HASM) cells were utilized for the [Ca^2+]i screening assays. Cells were seeded onto 96 well plates and loaded with Fluo-4 direct. The [Ca^2+]i responses to multiple concentrations of potential agonists were determined as a measure of receptor activation. Control cells were exposed to the non-specific ionophore ionomycin at 2.0 μM (a maximal effective concentration, FIG. 4). Results from TAS2R agonist studies were normalized to the ionomycin response in order to compare the maximal responses (Rmax) between agonists. The concentration-response data were fit to a four component logistic regression model (sigmoid curve) using iterative non-linear regression methods to determine the EC50 and Rmax. The structures of the previously identified agonist termed T5-1, and 18 derivatives (denoted as T5-2 through T5-19) are shown in FIG. 2. Representative [Ca^2+]i responses to these compounds are shown in FIG. 4, and mean results from multiple concentration-response experiments are shown in FIG. 3. Table 1 summarizes the results in terms of potency (EC50) and efficacy (Rmax), with statistical comparisons to T5-1.

For assay [2], the system named is primary HASM cells. Briefly: HASM cell relaxation by magnetic twisting cytometry (MTC). Format: cell-based, human. Particulars: for rank of HASM cell relaxation response (FIG. 7): 500 μM, added at 60 seconds, 200-400 cells per compound; for Relaxation (% basal): primary HASM cells passages 5-7, non-asthmatic donor, MTC, single concentration 500 μM. Here is the method:
FIG. 7 depicts HASM cell relaxation responses to selected compounds. Compounds were studied at a concentration of 500 μM and were added to the culture media at the 60 second time point (arrow). Results are from measurements of 200-400 cells per compound. *, P<0.01 vs the T5-1 reference response.
To correlate the [Ca^2+]i responses of the compounds to relevant physiologic function, we turned to measurements of single-cell mechanics in HASM cells using magnetic twisting cytometry (MTC) as previously described. Here, cultured primary HASM cells at passages 5-7 derived from a non-asthmatic donor lung were utilized. […] Positive controls (FIG. 6) included the β-agonists albuterol (partial agonist), formoterol (full agonist) and forskolin, which increases cAMP by direct activation of adenylyl cyclase.

Where two headings read alike, the source gives them in different places.

Consider `COc1c(OC)c2cccnc2c2ncccc12` [T5-15, 5,6-Dimethoxy-1,10-phenanthroline], for which, in assay [1] (Homo sapiens), the concentration giving a half-maximal response (EC50) – broadly, the concentration that produces a half-maximal response – was 7.48 ± 0.78 µM and the Emax was found to be 127 ± 16.1%. Also, in assay [2], the “rank of HASM cell relaxation response (FIG. 7)” value (“rank” for short) is “then 15” and the “Relaxation (% basal)” value came to 26.7 ± 1.65 % basal.
In the case of `c1cnc2c(c1)ccc1cccnc12` [T5-1, 1,10-Phenanthroline, reference compound], in assay [1] (Homo sapiens), the EC50 turned out to be 29.7 ± 5.57 µM and the Emax came to 149 ± 10.2%. In addition, in assay [2], the “Relaxation (% basal)” value is 10.8 ± 2.17 % basal.
Taken in the same sequence, the figures for `Nc1cc2cccnc2c2ncccc12` [T5-9, 1,10-Phenanthrolin-5-amine] were 4.6 ± 0.42 µM, 176 ± 14.2% and 7.2 ± 1.95 % basal.
The like results for `Brc1cc2cccnc2c2ncccc12` [T5-10, 5-Bromo-1,10-phenanthroline] were, in that order, 4.35 ± 0.71 µM, 182 ± 25.7% and 14.4 ± 1.93 % basal.
Consider `c1cnc2ccc3ncccc3c2c1` [T5-4, 4,7-Phenanthroline], for which, in assay [1] (Homo sapiens), the Emax amounted to 15.4 ± 3.37%. Further, the “Relaxation (% basal)” value in assay [2] worked out at 15.3 ± 1.48 % basal.
Regarding `Cc1ccc2ccc3ccc(C)nc3c2n1` [T5-5, 2,9-Dimethyl-1,10-phenanthroline], in assay [1] (Homo sapiens), the EC50 came out at 33.3 ± 6.4 µM and the Emax turned out to be 143 ± 13.1%. Moreover, the “Relaxation (% basal)” value in assay [2] worked out at 12.0 ± 1.47 % basal.
Turning to `C=C(C)c1c(C(=C)C)c2cccnc2c2ncccc12` [T5-17, 5,6-di(prop-1-en-2yl)-1,10-phenanthroline], in assay [1] (Homo sapiens), the EC50 came to 25.5 ± 7.06 µM and the Emax is 113 ± 19%. Also, the “Relaxation (% basal)” value in assay [2] is reported as 13.5 ± 2.59 % basal.
As to `Clc1cc2cccnc2c2ncccc12` [T5-11, 5-Chrolo-1,10-phenanthroline], in assay [1], the EC50 was determined as 11.1 ± 2 µM and the “Rmax (% ionomycin)” value was 183 ± 7.3 % ionomycin. Further, in assay [2], the “rank” value was “then 18 and 11”; the “Relaxation (% basal)” value amounted to 18.0 ± 2.13 % basal.
Consider `CCc1c(CC)c2cccnc2c2ncccc12` [T5-16, 5,6-Diethyl-1,10-phenanthroline], for which, in assay [1] (Homo sapiens), the 50% effective concentration (EC50) worked out at 4.05 ± 0.8 µM and the Emax is 183 ± 14.7%.
Regarding `Cc1ccnc2c1ccc1c(C)ccnc12` [T5-6, 4,7-Dimethyl-1,10-phenanthroline], in assay [1] (Homo sapiens), the EC50 was determined as 1.39 ± 0.19 µM and the Emax came to 147 ± 16.7%. The “Relaxation (% basal)” value in assay [2] worked out at 5.3 ± 1.95 % basal.
In the case of `O=C1C(=O)c2cccnc2-c2ncccc21` [T5-8, 1,10-Phenanthroline-5,6-dione], in assay [1] (Homo sapiens), the EC50 came out at 0.12 ± 0.05 µM and the Emax stood at 199 ± 20.2%. In assay [2], the “rank” value is reported as “greatest degree of relaxation” and the “Relaxation (% basal)” value was 50.2 ± 2.79 % basal.
Consider `Cc1ccnc(-c2cc(C)ccn2)c1` [T5-19, 4,4′-Dimethyl-2,2′-dipyridyl], for which, in assay [1], the EC50 is 60.6 ± 9.13 µM and the “Rmax (% ionomycin)” value worked out at 58.9 ± 2.95 % ionomycin.
`Cc1c(C)c2cccnc2c2ncccc12` [T5-7, 5,6-Dimethyl-1,10-phenanthroline]: in assay [1] (Homo sapiens), the EC50 stood at 2.05 ± 0.2 µM and the Emax turned out to be 163 ± 36.4%. In addition, in assay [2], the “Relaxation (% basal)” value was found to be 9.0 ± 2.19 % basal.
In the case of `c1cnc2c(c1)ccc1ncccc12` [T5-3, 1,7-Phenanthroline], in assay [1] (Homo sapiens), the 50% effective concentration (EC50) is 24.9 ± 4.58 µM and the Emax came out at 121 ± 16.7%. Moreover, the “Relaxation (% basal)” value in assay [2] amounted to 34.8 ± 1.36 % basal.
The like results for `c1cnc2c(c1)c1nccnc1c1cccnc12` [T5-14, Pyrazino[2,3-f][1,10]phenanthroline] were, in that order, 147 ± 2.26 µM, 34.5 ± 15.1% and 6.1 ± 1.67 % basal.
`O=[N+]([O-])c1cc2cccnc2c2ncccc12` [T5-13, 5-Nitro-1,10-phenanthroline]: in assay [1] (Homo sapiens), the EC50 was 36 ± 3.85 µM and the Emax came to 134 ± 11.9%. The “Relaxation (% basal)” value in assay [2] was found to be 12.8 ± 2.00 % basal.
On to `Cc1cc2cccnc2c2ncccc12` [T5-12, 5-Methyl-1,10-phenanthroline], for which, in assay [1] (Homo sapiens), the EC50 was found to be 12.1 ± 1.99 µM and the Emax was determined as 181 ± 24.6%.
With `c1ccc(-c2ccccn2)nc1` [T5-2, 2,2′-Bipyridine], in assay [1] (Homo sapiens), the Emax is 16.4 ± 4.48%. Further, the “Relaxation (% basal)” value in assay [2] is given as −3.2 ± 1.67 % basal.
For `O=C1C(=O)c2ccccc2-c2ccccc21` [T5-18, 9,10-Phenanthrenequinone], in assay [1] (Homo sapiens), the concentration giving a half-maximal response (EC50) was 5.08 ± 1.37 µM and the Emax was 153 ± 5.2%. Moreover, in assay [2], the “rank” value is “then 18 and 11”; the “Relaxation (% basal)” value is listed as 20.0 ± 2.00 % basal.
